We go through eight compounds from ChEMBL document CHEMBL5725474, “Carbazole compounds useful as bromodomain inhibitors” (2018).

pIC50: −log10 of the molar value.

This test has as its target Bromodomain-containing protein 4 (Homo sapiens, UniProt O60885). Kind of test: Time Resolved Fluorescence Resonance Energy Transfer (TR-FRET) Assay: The binding of compounds to bromodomain BRD4 (44-168), BRD4 (333-460), and BRD4 (1-477 or 44-460) was assessed using a time resolved fluorescent resonance energy transfer binding assay (1), that measures the binding of a fluorescently labeled probe molecule to the bromodomain protein. The bromodomain protein, fluorescent probe molecule (either a biotinylated histone peptide or a fluorescently labeled small molecule), and dose-responsed test compound are incubated together to reach thermodynamic equilibrium. In the absence of a test compound, the bromodomain and small molecule are bound, resulting in a high fluorescent signal. In the presence of a sufficient concentration of inhibitor, this intercation is disrupted resulting in a loss of fluorescent resonance energy transfer. On the technique in general: In TR-FRET formats the signal depends on donor and acceptor labels being close together.

Regarding `Cc1noc(C)c1-c1cc(C(N)=O)c2c(c1)c1ccc(N3CCOCC3)cc1n2CC1CC1`, the pIC50 was above 5.30.
For `Cc1noc(C)c1-c1cc(C(N)=O)c2c(c1F)c1ccc(C(=O)N3C[C@@H](C)O[C@@H](C)C3)cc1n2CC1CC1` the value was above 7.30; for `Cc1noc(C)c1-c1cc(C(N)=O)c2c(c1)c1ccc(N3CCCC3=O)cc1n2CC1CC1`, above 7.30.
Then `Cc1noc(C)c1-c1cc(C(N)=O)c2c(c1)c1ccc(S(C)(=O)=O)cc1n2S(=O)(=O)C1CC1`, with above 6.30; and `COC1CN(C(=O)c2ccc3c4cc(-c5c(C)noc5C)cc(C(N)=O)c4n(S(=O)(=O)C4CC4)c3c2)C1`, with above 7.30; and `Cc1noc(C)c1-c1cc(C(N)=O)c2c(c1)c1ccc(C(C)(C)O)cc1n2S(C)(=O)=O`, with above 7.30.
In the case of `Cc1noc(C)c1-c1cc(C(=O)NCC2CC2)c2c(c1)c1c(S(C)(=O)=O)cccc1n2CC1CC1`, the pIC50 was above 6.30.
With `COC(=O)Nc1ccc2c3cc(-c4c(C)noc4C)cc(C(N)=O)c3n(CC3CC3)c2c1`, the pIC50 was above 6.30.

The term pIC50 denotes the IC50 on a negative log10 scale, so that one unit is a factor of ten.
